The values below come from ChEMBL document CHEMBL1133966, “Substituted imidazoles as glucagon receptor antagonists” (Bioorg Med Chem Lett, 2001).

Assay [1] deals with T1, Glucagon receptor (Homo sapiens, UniProt P47871). As to the kind of experiment: Affinity for human glucagon receptor in absence of Mg2+. To be noted: concentration not given here. Details: concentration or dose not given beside the values.
The target of assay [2] is T2, MAP kinase p38 (Homo sapiens, UniProt O15264+Q15759+Q16539+P53778). As to the kind of experiment: Binding affinity towards human Mitogen-activated protein kinase p38 expressed as IC50. In kind it is protein assay.
Assay [3] has as its target T1, Glucagon receptor. As to the kind of experiment: Binding affinity towards human glucagon receptor in absence of Mg2+ expressed as IC50.
The target in assay [4] is T1, Glucagon receptor. As to the kind of experiment: Affinity for human glucagon receptor in presence of Mg2+.
Assay [5] deals with T1, Glucagon receptor. As to the kind of experiment: Binding affinity towards human glucagon receptor in absence of Mg2+. To be noted: concentration not given here.
The target of assay [6] is T2, MAP kinase p38. Nature of the assay: Inhibition of human Mitogen-activated protein kinase p38 at 40 uM. The assay is classed as protein assay.

T1 sequence (P47871 whole entry): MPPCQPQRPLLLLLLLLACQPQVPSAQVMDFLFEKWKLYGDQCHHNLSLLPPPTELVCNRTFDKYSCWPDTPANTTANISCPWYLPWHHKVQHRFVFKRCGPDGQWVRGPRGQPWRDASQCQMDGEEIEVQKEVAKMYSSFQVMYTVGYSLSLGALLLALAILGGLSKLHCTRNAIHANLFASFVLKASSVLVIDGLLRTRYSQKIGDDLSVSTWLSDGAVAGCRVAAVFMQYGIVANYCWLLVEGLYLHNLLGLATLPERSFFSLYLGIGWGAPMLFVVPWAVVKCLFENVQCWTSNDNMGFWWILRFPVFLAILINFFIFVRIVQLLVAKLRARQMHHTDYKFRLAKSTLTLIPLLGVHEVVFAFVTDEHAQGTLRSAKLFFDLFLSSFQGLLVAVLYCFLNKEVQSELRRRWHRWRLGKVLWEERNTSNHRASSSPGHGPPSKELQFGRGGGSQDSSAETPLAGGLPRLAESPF

In the case of `CSc1ccc(-c2nc(-c3ccc(F)cc3)c(-c3ccncc3)o2)cc1`, the inhibition against Glucagon receptor [1] was -8%. Besides, the IC50 at MAP kinase p38 [2] was determined as 0.93 µM.
On to `N#Cc1ccc(-c2nc(-c3ccncc3)c(-c3ccc(F)cc3)[nH]2)cc1`, for which the 50% inhibitory concentration (IC50) amounted to 8 µM at Glucagon receptor [3] and 0.21 µM on MAP kinase p38 [2].
As for `CCCCc1ccc(-c2[nH]c(-c3ccc(Cl)cc3)nc2-c2ccncc2)cc1`, the IC50 on Glucagon receptor [3] was 0.074 µM; on Glucagon receptor [4] it was 0.15 µM; at MAP kinase p38 [2], more than 10 µM.
`Fc1ccc(-c2[nH]c(CCc3ccccc3)nc2-c2ccncc2)cc1`: on Glucagon receptor [1], the inhibition is less than 20%. The same molecule displayed an IC50 at MAP kinase p38 [2] of 0.13 µM.
In the case of `CCCCOc1ccccc1-c1[nH]c(-c2ccc(Cl)cc2)nc1-c1ccncc1`, the 50% inhibitory concentration (IC50) at Glucagon receptor [3] was 0.0085 µM; on Glucagon receptor [4], 0.11 µM; at MAP kinase p38 [2] it was more than 1 µM.
On to `Cc1ccc(-c2nc(-c3ccc(F)cc3)c(-c3ccncc3)[nH]2)cc1`, for which the 50% inhibitory concentration (IC50) on Glucagon receptor [3] turned out to be 1.3 µM; on MAP kinase p38 [2] it was 0.09 µM.
With `CSc1ccc(-c2nc(-c3ccc(F)cc3)c(-c3ccncc3)n2C)cc1`, the inhibition against Glucagon receptor [1] came out at 10%. The molecule further returned an IC50 on MAP kinase p38 [2] of 0.52 µM.
Take `Fc1ccc(-c2[nH]c(-c3cc(Br)cs3)nc2-c2ccncc2)cc1`: the IC50 at Glucagon receptor [3] was 2.8 µM; at MAP kinase p38 [2], 0.1 µM.
In the case of `Oc1ccc(-c2nc(-c3ccc(F)cc3)c(-c3ccncc3)[nH]2)cc1`, at Glucagon receptor [5], the inhibition was less than 20%.
In the case of `Clc1ccc(-c2nc(-c3ccc(I)cc3)c(-c3ccncc3)[nH]2)cc1`, the IC50 on Glucagon receptor [3] came out at 0.13 µM; on Glucagon receptor [4], 0.75 µM; on MAP kinase p38 [2], 0.14 µM.
On to `CC(C)c1ccc(-c2nc(-c3ccc(F)cc3)c(-c3ccncc3)[nH]2)cc1`, for which the IC50 on Glucagon receptor [3] was 0.7 µM; on MAP kinase p38 [2] it was 0.28 µM.
Regarding `Clc1ccc(-c2nc(-c3cccc(Oc4ccccc4)c3)c(-c3ccncc3)[nH]2)cc1`, the IC50 on Glucagon receptor [3] was determined as 0.013 µM; at Glucagon receptor [4], 0.15 µM; at MAP kinase p38 [2], 0.22 µM.
For `CC(C)(C)c1ccc(-c2[nH]c(-c3ccc(Cl)cc3)nc2-c2ccncc2)cc1`, in that order: 0.13 µM, 3.4 µM and more than 10 µM.
As for `Fc1ccc(-c2[nH]c(-c3ccccc3Br)nc2-c2ccncc2)cc1`, the inhibition at Glucagon receptor [5] was less than 20%. This molecule also displayed an IC50 on MAP kinase p38 [2] of 0.09 µM.
`Brc1ccc(-c2nc(-c3ccccc3)c(-c3ccncc3)[nH]2)cc1`: the IC50 at Glucagon receptor [3] came to 0.782 µM; on MAP kinase p38 [2], 0.04 µM.
Turning to `Clc1ccc(-c2nc(-c3ccc(Oc4ccccc4)cc3)c(-c3ccncc3)[nH]2)cc1`, the IC50 on Glucagon receptor [3] is 0.027 µM; on Glucagon receptor [4], 0.11 µM; at MAP kinase p38 [2], 0.25 µM.
Take `Brc1ccc(-c2nc(-c3ccccc3)c(-c3ccccc3)[nH]2)cc1`: the inhibition on Glucagon receptor [1] was determined as 37%. This molecule returned a half-maximal inhibitory concentration (IC50) at MAP kinase p38 [2] of 2.2 µM.
For the molecule `Fc1ccc(-c2nc(-c3ccccc3)[nH]c2-c2ccncc2)cc1`, at Glucagon receptor [3], the IC50 is more than 20 µM.
Take `CSc1ccc(-c2nc(-c3ccncc3)c(-c3ccc(F)cc3)n2C)cc1`: on Glucagon receptor [1], the inhibition is 38%. This molecule also registered an IC50 on MAP kinase p38 [2] of 0.86 µM.
For the molecule `Cc1cnccc1-c1[nH]c(-c2ccc(Cl)cc2)nc1-c1ccc(F)cc1`, the IC50 is 1.1 µM at Glucagon receptor [3] and 0.02 µM on MAP kinase p38 [2].
`Fc1ccc(-c2[nH]c(-c3ccc(Br)cc3)nc2-c2ccncc2)cc1`: the IC50 at Glucagon receptor [3] was 0.27 µM; on Glucagon receptor [4] it was 2.9 µM; at MAP kinase p38 [2], 0.16 µM.
Turning to `Fc1ccc(-c2[nH]c(-c3cccc4ccccc34)nc2-c2ccncc2)cc1`, the IC50 on Glucagon receptor [3] came to 1.5 µM; on MAP kinase p38 [2], 0.34 µM.
With `Oc1ccc(-c2[nH]c(-c3ccc(Br)cc3)nc2-c2ccccc2)cc1`, the inhibition against Glucagon receptor [1] was found to be 24%. For the same molecule, on MAP kinase p38 [2], the IC50 came out at 0.1 µM.
For the molecule `CCCOc1ccc(-c2[nH]c(-c3ccc(Cl)cc3)nc2-c2ccncc2)c(OCCC)c1`, the IC50 on Glucagon receptor [3] is 0.013 µM; at Glucagon receptor [4], 0.12 µM; on MAP kinase p38 [2], 2.4 µM.
Regarding `Fc1ccc(-c2[nH]c(-c3ccc(-c4ccccc4)cc3)nc2-c2ccncc2)cc1`, the half-maximal inhibitory concentration (IC50) is 10 µM on Glucagon receptor [3] and 0.3 µM on MAP kinase p38 [2].
As to `Fc1ccc(-c2[nH]c(-c3ccc(Cl)cc3)nc2-c2ccncc2)cc1`, the IC50 at Glucagon receptor [3] amounted to 0.4 µM; at Glucagon receptor [4], 3.2 µM; at MAP kinase p38 [2], 0.08 µM.
For `Clc1ccc(-c2nc(-c3cccc(-c4ccccc4)c3)c(-c3ccncc3)[nH]2)cc1`, in that order: 0.061 µM, more than 3 µM and 0.59 µM.
The corresponding values for `Clc1ccc(-c2nc(-c3ccc(-c4ccccc4)cc3)c(-c3ccncc3)[nH]2)cc1` are 0.14 µM, 3.8 µM and 3.3 µM.
Turning to `Clc1ccc(-c2nc(-c3ccc(Cl)cc3)c(-c3ccncc3)[nH]2)cc1`, the IC50 on Glucagon receptor [3] worked out at 0.19 µM; at Glucagon receptor [4], 2.2 µM; on MAP kinase p38 [2], 0.023 µM.
In the case of `Fc1ccc(-c2[nH]c(-c3ccc(Br)o3)nc2-c2ccncc2)cc1`, the inhibition at Glucagon receptor [1] is less than 20%. The molecule further displayed an IC50 on MAP kinase p38 [2] of 0.19 µM.
Regarding `Fc1ccc(-c2[nH]c(-c3ccc(I)cc3)nc2-c2ccncc2)cc1`, the results for the 50% inhibitory concentration (IC50) on Glucagon receptor [3] and on MAP kinase p38 [2] were 0.51 µM and 0.1 µM, respectively.
For `Fc1ccc(-c2[nH]c(-c3cccc(Br)c3)nc2-c2ccncc2)cc1`, in that order: 1.4 µM and 0.15 µM.
On to `Cc1cc(-c2[nH]c(-c3ccc(Cl)cc3)nc2-c2ccc(F)cc2)ccn1`, for which the inhibition on Glucagon receptor [1] turned out to be 38%. At MAP kinase p38 [2], this molecule displayed an IC50 of 0.05 µM.
`Clc1ccc(-c2nc(-c3ccccc3Oc3ccccc3)c(-c3ccncc3)[nH]2)cc1`: the IC50 at Glucagon receptor [3] worked out at 0.0065 µM; on Glucagon receptor [4], 0.29 µM; at MAP kinase p38 [2] it was 0.15 µM.
With `CCCCOc1ccc(-c2[nH]c(-c3ccc(Cl)cc3)nc2-c2ccncc2)c(OCCCC)c1`, the IC50 at Glucagon receptor [3] was found to be 0.0065 µM; at Glucagon receptor [4] it was 0.053 µM. In addition, on MAP kinase p38 [6], the inhibition amounted to 20%.
On to `Fc1ccc(-c2[nH]c(-c3ccc(Br)s3)nc2-c2ccncc2)cc1`, for which the IC50 turned out to be 2.2 µM on Glucagon receptor [3] and 0.11 µM on MAP kinase p38 [2].
